Assay: first-order primary biodegradation rate constant k (sorption-corrected, fDis-corrected) (d-1); higher = faster biodegradation
In short: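 River water and sieved sediment (50 g wet solid L^–1) from segments in Germany, Switzerland, Spain and Greece were spiked with 129 compounds at 1 μg L^–1 each and shaken in the dark at river water temperature (20.5 ± 3.5 °C) for 10 days, in three replicates. After filtration, water-phase subsamples were analysed by Orbitrap tandem mass spectrometry following ultra-high-performance liquid chromatography. First-order k was taken from log peak-area regression, corrected using azide-sterilised sorption controls and divided by the dissolved fraction, excluding invalid fits.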

[1] = river segment: Germany (DE) H_Contam, incubation temperature 24 °C
[2] = river segment: Germany (DE) T_Contam, incubation temperature 24 °C
[3] = river segment: Germany (DE) T_Pris, incubation temperature 24 °C
[4] = river segment: Greece (EL) A_Contam, incubation temperature 19 °C
[5] = river segment: Greece (EL) G_Contam, incubation temperature 19 °C
[6] = river segment: Greece (EL) G_Pris, incubation temperature 19 °C
[7] = river segment: Greece (EL) L_Contam, incubation temperature 19 °C
[8] = river segment: Spain (ES) B_Contam, incubation temperature 24 °C
[9] = river segment: Spain (ES) C_Contam, incubation temperature 24 °C
[10] = river segment: Spain (ES) F_Pris_Salt, incubation temperature 24 °C
[11] = river segment: Spain (ES) L_Contam, incubation temperature 24 °C
[12] = river segment: Switzerland (CH) C_Contam, incubation temperature 17 °C
[13] = river segment: Switzerland (CH) R_Contam, incubation temperature 17 °C
[14] = river segment: Switzerland (CH) U_Contam, incubation temperature 17 °C
[15] = river segment: Switzerland (CH) U_Pris, incubation temperature 17 °C

SMILES | first-order primary biodegradation rate constant k [1] | first-order primary biodegradation rate constant k [2] | first-order primary biodegradation rate constant k [3] | first-order primary biodegradation rate constant k [4] | first-order primary biodegradation rate constant k [5] | first-order primary biodegradation rate constant k [6] | first-order primary biodegradation rate constant k [7] | first-order primary biodegradation rate constant k [8] | first-order primary biodegradation rate constant k [9] | first-order primary biodegradation rate constant k [10] | first-order primary biodegradation rate constant k [11] | first-order primary biodegradation rate constant k [12] | first-order primary biodegradation rate constant k [13] | first-order primary biodegradation rate constant k [14] | first-order primary biodegradation rate constant k [15]
CNC(=C[N+](=O)[O-])NCCSCc1ccc(CN(C)C)o1 [Ranitidine] | 0.498 | 28.6 | 17.5 | 6.6 | 1.42 | 28.8 | 3.75 | 1.57 | 0.0642 | 0.103 | 3.75 | 0.639 | 0.559 | 0.756 | 0.596
CC[C@@H](C(N)=O)N1CCCC1=O [Levetiracetam] | 0.229 | 0.49 | 0.0839 | 0.382 | – | 0.188 | – | 0.958 | 0.236 | – | 0.262 | – | 0.35 | – | –
Nc1nc(NC2CC2)c2ncn([C@H]3C=C[C@@H](CO)C3)c2n1 [Abacavir] | 1.6 | 1.17 | 1.37 | 2.15 | 1.43 | 2.35 | 12 | – | 0.639 | 0.449 | 2.21 | 0.83 | 1.18 | 1.47 | 1.5
O=S(=O)(O)NC1CCCCC1 [Cyclamate] | 0.0317 | 0.223 | 0.0464 | 0.826 | – | – | 0.0837 | – | 0.261 | 0.0914 | 1.66 | 0.205 | 0.379 | 0.24 | 0.0988
CCOc1nc2cccc(C(=O)O)c2n1Cc1ccc(-c2ccccc2-c2nnn[nH]2)cc1 [Candesartan] | – | – | – | 0.00917 | 0.398 | – | – | – | – | – | – | – | – | – | 0.00966
O=C(NCC1CCCCN1)c1cc(OCC(F)(F)F)ccc1OCC(F)(F)F (centres undefined) [Flecainide] | – | 0.116 | 0.0199 | 0.228 | 0.0658 | – | 0.0674 | – | 1.31 | – | 0.0814 | – | – | – | –
CCOC(=O)C1CC(=O)C(=C(O)C2CC2)C(=O)C1 (centres undefined) [Trinexapac-ethyl] | 0.0565 | 0.461 | 0.0811 | 0.435 | 0.0205 | 0.252 | 0.256 | 0.337 | 0.0822 | – | 0.373 | 0.0493 | 0.149 | 0.178 | 0.195
CNCCC(Oc1ccc(C(F)(F)F)cc1)c1ccccc1 (centres undefined) [Fluoxetine] | 0.797 | – | 3.25 | – | – | – | – | – | – | – | – | 0.0571 | – | 4.2 | 2.14
CC(C)c1ccc(NC(=O)N(C)C)cc1 [Isoproturon] | 0.0107 | 0.0814 | – | 0.072 | – | 0.111 | 0.0309 | – | 0.0102 | – | 0.0402 | – | – | 0.0187 | 0.0209
C#CCN(C)Cc1ccccc1 [Pargyline] | 0.16 | 0.425 | 0.199 | 0.519 | 0.773 | – | 0.513 | 0.0362 | 0.113 | 0.179 | – | 0.22 | 0.4 | 0.596 | 0.768
COCC(C)N(C(=O)CCl)c1c(C)csc1C (centres undefined) [Dimethenamid] | – | 0.036 | – | 0.0238 | – | – | 0.014 | – | – | – | 0.0244 | – | 0.0163 | 0.0318 | 0.0152
NS(=O)(=O)c1cc2c(cc1Cl)N=CNS2(=O)=O [Chlorothiazide] | – | 0.0266 | – | – | – | – | – | – | – | 0.166 | – | – | – | – | –

The remaining lines, values ahead:

first-order primary biodegradation rate constant k [1] | first-order primary biodegradation rate constant k [2] | first-order primary biodegradation rate constant k [3] | first-order primary biodegradation rate constant k [4] | first-order primary biodegradation rate constant k [5] | first-order primary biodegradation rate constant k [6] | first-order primary biodegradation rate constant k [7] | first-order primary biodegradation rate constant k [8] | first-order primary biodegradation rate constant k [9] | first-order primary biodegradation rate constant k [10] | first-order primary biodegradation rate constant k [11] | first-order primary biodegradation rate constant k [12] | first-order primary biodegradation rate constant k [13] | first-order primary biodegradation rate constant k [14] | first-order primary biodegradation rate constant k [15] | SMILES
0.0889 | 0.143 | – | 0.0196 | 0.0964 | – | 0.063 | – | – | – | 1.1 | – | – | – | – | Cc1cc(NS(=O)(=O)c2ccc(N)cc2)no1 [Sulfamethoxazole]
0.119 | 0.0815 | 0.1 | 0.106 | 0.0602 | – | 0.211 | – | 0.151 | 4.7 | – | 0.175 | – | – | 0.0832 | COC(=O)c1ccc(O)cc1 [Methylparaben]
0.11 | 0.365 | – | 0.0988 | 0.0667 | 0.729 | 0.357 | – | – | – | 0.9 | – | – | – | 0.0819 | Cc1cc(C)nc(NS(=O)(=O)c2ccc(N)cc2)n1 [Sulfamethazine]
3.99 | – | 8.59 | – | – | – | 6.29 | – | – | 6.23 | – | – | 18 | – | – | CN(Cc1cnc2nc(N)nc(N)c2n1)c1ccc(C(=O)N[C@@H](CCC(=O)O)C(=O)O)cc1 [Methotrexate]
– | – | – | 0.0419 | 0.114 | – | 0.108 | 0.466 | 2.12 | – | 0.364 | – | – | 0.0177 | – | CCOC(=O)c1ccc(O)cc1 [Ethylparaben]
0.0696 | 0.497 | 0.23 | 0.235 | – | – | – | – | 0.0725 | 0.804 | – | 0.174 | – | 1.41 | 1.7 | Cc1cccc(Nc2ccccc2C(=O)O)c1C [Mefenamic acid]
0.295 | 0.469 | 0.123 | 0.408 | 0.184 | 0.438 | 0.566 | 1.03 | 0.169 | 0.0229 | 0.263 | 0.382 | 0.411 | – | 2.17 | CC(C)(Oc1ccc(CCNC(=O)c2ccc(Cl)cc2)cc1)C(=O)O [Bezafibrate]

Reference: the supplement of paper PMC11562712
